Data as given in patent publication US11857522B2, “Compositions containing tucaresol or its analogs” (BeyondSpring Pharmaceuticals, Inc., priority 2016, dated 2024).

System: MC-38 tumor cells
Test: MC-38 tumor model, comparison of tucaresol and CTLA-4 antibody (Example 9)
Assay type: in vivo, mice
Conditions: FIG. 4
Method: The treatment with the combination of tucaresol, a PD-1 antibody, and CTLA-4 antibody was compared with the combination of PD-1 antibody and CTLA-4 antibody for their tumor inhibition effects. The tests were performed using seven to ten-week old immune competent mice that were injected subcutaneously with MC-38 tumor cells.
Three testing groups were prepared. Group A was administered with PD-1 antibody (3 mg/kg)/CTLA-4 antibody (3 mg/kg) combined treatment; Group B was administered with a tucaresol (10 mg/kg)/PD-1 antibody (3 mg/kg) CTLA-4 antibody (3 mg/kg) combined treatment; and Group C was administered with a PD-1 antibody (3 mg/kg)/CTLA-4 antibody (10 mg/kg) combined treatment. […]
Each treatment started at tumor size between 40-150 mm^3 and continued until Day 24. To determine the efficacy of each treatment, the following data were collected: mortality rate; the body weight of the mice assessed twice weekly both prior to treatments; the rate of tumor growth as determined by the tumor size measurement (twice every week); the tumor growth index; overall survival rate; the time required to double tumor size and the tumor weight at necropsy.

## O=Cc1c(O)cccc1OCc1ccc(C(=O)O)cc1 [tucaresol, 4-[(2-formyl-3-hydroxy-phenoxy)methyl]benzoic acid]
Tucaresol 10 mg/kg added to PD-1 antibody (3 mg/kg)/CTLA-4 antibody (3 mg/kg), compared with raising CTLA-4 antibody from 3 mg/kg to 10 mg/kg, until Day 24
  anti-tumor effect of the combination (MC 38 tumor growth): increased the anti-tumor effect of the combination to a greater extent than increasing the dose of the CTLA-4 antibody
Used together with immune checkpoint inhibitors such as PD-1 antibody, MC-38 tumors in mice
  inhibiting tumor growth: more effective in inhibiting tumor growth than CTLA-4 antibody
